Earlier results, collected in patent US20020192834A1, “Analysis of caffeine” (priority 2001, published 2002).

Details: after consuming caffeine in coffee; background statement

For `Cn1c(=O)c2c(ncn2C)n(C)c1=O` [caffeine, trimethylxanthine], the half-life of caffeine is listed as “about 6 hours”.
